Assay results published in patent publication US20060148876A1, “Nr3b1 nuclear receptor binding 3-substituted pyrazoles” (priority 2002, published 2006).
“Also recorded” adds a separate entry of the source.

Legend:
[1] = tested on: T47D cells; assay: Cell proliferation assay (CellTiter 96) in ER positive breast cancer cells; assay type: cell-based; conditions: 8 days treatment, 1 nM to 100 nM
Method: (§1) Cells were seeded in 96-well plates at a density of 15,000 (MDA-MB-231) or 10,000 (T47D) cells/100 μl/well in phenol red-free DMEM (Gibco-BRL) containing 10% (MDA-MB-231) or 2% (T47D) charcoal dextran treated FBS (Perbio Science GmbH). Treatment media containing either 0.1% DMSO (control) or 0.1% DMSO with increasing concentrations of compounds (as indicated) were added on the following day and replaced at 72 h intervals until the end of the experiment. At 6 days (MDA-MB-231) or 8 days (T47D) after initiation of the treatment a colorimetric proliferation assay was performed using CellTiter 96 Aqueous nonradioactive proliferation assay as directed by the manufacturer (Promega). Cell proliferation rates were measured as absorbance of the formazan product at 490 nm. Values are expressed as percentage of control (DMSO) and represent the means of three replicates.

[2] = tested on: MDA-MB-231 cells; assay: Cell proliferation assay (CellTiter 96) in ER negative breast cancer cells; assay type: cell-based; conditions: 6 days treatment
Method: as §1

[3] = tested on: human ERR alpha (NR3B1); assay: In vitro LANCE (TR-FRET) screening for compounds which influence ERRa binding to coactivator SRC1 peptide; assay type: biochemical; conditions: see figures
Method: The present invention relates to a compound as described above wherein said compounds is capable of binding the NR3B1 receptor protein or a portion thereof according to SEQ ID NO. 1 (cf. FIG. 3 A to D) or a mammalian homologue thereof. The claimed compound can bind to the NR3B1 receptor protein or a portion thereof in a mixture comprising 10-200 ng of NR3B1 receptor protein or a portion thereof, preferably the ligand binding domain, 20 mM Tris/HCl at pH 7.9; 60 mM KCl; 5 mM MgCl2; 160 ng/μl BSA in a total volume of preferably about 25 μl.
For screening purposes a fragment of the open reading frame of human ERR alpha (NR3B1-(Acc. No: NM_004451)) encoding aminoacids […] was amplified by standard RT PCR procedures (see figures; SEQ ID NO. 1 and 2). […]
For screening of compound libraries as provided for by the methods shown below in the examples for substances which influence the ERRa/SRC1 interaction, the Perkin Elmer LANCE technology was applied. […] For ease of handling and reduction of background from compound fluorescence LANCE technology makes use of generic fluorophore labels and time resoved detection (for detailed description see Hemmilä I, Blomberg K and Hurskainen P, Time-resolved resonance energy transfer (TRFRET) principle in LANCE, Abstract of Papers Presented at the 3 rd Annual Conference of the Society for Biomolecular Screening, September, California (1997)). […]

active as antagonist of the NR3B1 human nuclear receptor [3] | SMILES | effect on proliferation of T47D cells (ER positive) [1] | effect on proliferation of T47D cells (ER positive) ([1]; listed as E2) | effect on proliferation of MDA-MB-231 cells (ER negative) [2]
– | C[C@]12CC[C@@H]3c4ccc(O)cc4CC[C@H]3[C@@H]1CC[C@@H]2O [17β-estradiol] | stimulated | stimulate the growth | did not
– | CC/C(=C(/CC)c1ccc(O)cc1)c1ccc(O)cc1 [DES, Diethylstilbestrol] | stimulated; also recorded: stimulate the growth | – | inhibited proliferation; also recorded: inhibit growth
active as antagonist | Cc1ccc(C)c(-c2cc(-c3ccc(O)cc3)nn2C)c1 [formula 5] | – | – | –
active as antagonist | Cc1cc(C)cc(-n2nc(-c3ccc(O)cc3)cc2-c2ccc(C)o2)c1 [formula 6] | – | – | –
